The record followed here is US5620997A, “Isothiazolones” (Warner-Lambert Company, priority 1995, dated 1997).

As usually defined, the inhibition is how much of the control response was suppressed. Low values mean little suppression, high ones strong suppression.

In this test the target is T1, rabbit reticulocyte 15-LO (Oryctolagus cuniculus, UniProt P12530).
T1 construct: rabbit reticulocyte 15-LO; from tissue; host or cells: rabbit reticulocytes
T1 sequence (P12530 1-663): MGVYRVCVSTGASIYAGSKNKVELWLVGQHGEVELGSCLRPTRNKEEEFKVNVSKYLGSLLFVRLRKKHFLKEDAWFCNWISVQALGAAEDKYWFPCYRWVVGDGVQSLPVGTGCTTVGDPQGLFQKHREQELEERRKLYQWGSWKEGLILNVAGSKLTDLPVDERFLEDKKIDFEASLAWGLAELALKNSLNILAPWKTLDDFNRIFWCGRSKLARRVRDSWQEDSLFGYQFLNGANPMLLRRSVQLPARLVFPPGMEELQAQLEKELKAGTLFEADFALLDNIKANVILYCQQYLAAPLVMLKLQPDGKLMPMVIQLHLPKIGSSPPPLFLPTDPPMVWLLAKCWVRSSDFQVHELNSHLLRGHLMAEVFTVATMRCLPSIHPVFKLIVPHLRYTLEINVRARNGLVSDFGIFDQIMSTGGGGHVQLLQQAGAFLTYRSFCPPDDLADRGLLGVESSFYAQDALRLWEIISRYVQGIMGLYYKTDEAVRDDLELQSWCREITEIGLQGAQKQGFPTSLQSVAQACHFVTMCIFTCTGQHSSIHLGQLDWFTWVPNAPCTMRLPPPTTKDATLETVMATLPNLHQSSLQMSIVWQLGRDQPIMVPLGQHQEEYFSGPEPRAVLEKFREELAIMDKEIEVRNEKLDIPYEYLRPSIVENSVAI
Nature of the test: Colorimetric Assay of 15-LO Inhibition. It is filed as biochemical. To be noted: colorimetric method. As to the method:
The isothiazolones of Formula I are also effective for treating inflammation and atherosclerosis. A characteristic feature of atherosclerosis is the accumulation of cholesteryl ester engorged from foam cells. Foam cells are derived from circulating monocytes which invade artery walls in response to hypercholesterolemia, and mature into tissue macrophages. […] Specifically, representative compounds were evaluated by the methods described by Auerbach, et al., Analytical Biochemistry, 1992;201:375-380. Two in vitro assays were utilized, both utilizing rabbit reticulocyte 15-LO, and linoleic acid as substrate, to enzymatically produce a peroxide oxidation product known as 13(S)-HPODE. N-Benzoyl leucomethylene blue was utilized as a colorimetric reagent for detection and quantification of the peroxide formation. Also, HPLC was utilized to quantify the oxidation following incubation at 4° C. for 10 minutes.
Table 3 gives the concentration of compound required to inhibit 50% of the activity of 15-LO (IC50) when measured by the HPLC method of Auerbach, et al. Table 4 gives the percent inhibition of 15-LO activity when evaluated by the colorimetric method.

Compound `CC(=O)NS(=O)(=O)c1ccc(-n2sc3ccccc3c2=O)cc1` [Example 3, N-Acetyl-4-(3-oxo-3h-benzo[d]isothiazol-2-yl)-benzenesulfonamide] yielded an inhibition at 10 µM of 75%.
In turn, `CCN(CC)CCn1sc2nc(-c3ccccc3)ncc2c1=O` [Example 21, 2-[2-(Diethylamino)ethyl]-6-phenyl-isothiazolo[5,4-d] pyrimidin-3(2H)-one] had an inhibition at 10 µM of 95%.
With `COc1ccc(-c2ccc3c(=O)n(CCN(C)C)sc3n2)cc1OC` [Example 108], the inhibition at 10 µM was determined as 65%.
On to `CN(C)CCn1sc2nc3ccccc3cc2c1=O` [Example 109], for which the inhibition at 10 µM is 22%.
